Data taken from publication PMC5584945, “Evaluation of robenidine analog NCL195 as a novel broad-spectrum antibacterial agent” (PLoS ONE, 2017).
Read-outs that look alike come from different tables or passages of the source.

Key:
mice = details: cited from earlier work
S. pneumoniae D39 = assay: TEM morphometric analysis of cell membrane; assay type: cell-based, Streptococcus pneumoniae; details: 16 μg/ml, 6 h exposure
Procedure: Morphological appearance and morphometric analysis of the cell membrane of S. pneumoniae D39 after exposure to either 1 μg/ml, 4 μg/ml or 16 μg/ml of NCL812 was determined using TEM, as described in S1 File (Supplementary Methods). For S. aureus ATCC 29213, macromolecular (DNA, RNA, protein, cell wall, and lipid) synthesis inhibition studies were performed using concentrations of NCL812 that were equivalent to 0, 0.25, 0.5, 1, 2, 4 or 8-fold the MIC value (4 μg/ml), as detailed in S1 File (Supplementary Methods).
Effect of NCL812 on S. pneumoniae D39 cell membrane ultra-structure. Morphological appearance and morphometric analysis of the cell membrane of S. pneumoniae D39 after exposure to either 1 µg/ml, 4 µg/ml or 16 µg/ml of NCL812 was determined using TEM. […] Cultures were then exposed to either 1 µg/ml, 4 µg/ml or 16 µg/ml of NCL812 and harvested at 6 or 12 h by centrifugation at […] for 20 min and washed twice in 50 ml PBS. Critical time points for TEM work were determined by analyzing trends in the growth curves produced from the kill kinetics studies. Samples were resuspended in PBS containing 20% glycerol and stored at -80°C until required. […]
Samples were fixed using modified protocols defined by a previous study examining cell wall ultrastructure of S. pneumoniae. […] Images were obtained at 130000× magnification and analyzed using analySIS (Olympus Soft Imaging Systems).

Neisseria meningitidis = assay: Activity against Neisseria meningitidis; assay type: cell-based
Procedure: (§1) MICs for NCL812 and its analogs (serial two-fold dilutions commencing at 128 μg/ml) were determined (in duplicate) in round bottom 96-well microtitre trays (Sarstedt 82.1582.001), using the broth micro-dilution method recommended by the Clinical and Laboratory Standards Institute (CLSI). […] MIC50, MIC90 and MIC range for NCL812, NCL195 and NCL219 were calculated against each S. pneumoniae, S. aureus or VRE isolate. To assess the potential activity of NCL195 against Gram-negative bacteria, MICs against Acinetobacter spp, E. coli, K. pneumoniae, P. aeruginosa, Proteus spp and Neisseria meningitidis were performed in the presence or absence of 0.08 mM-20 mM EDTA in a standard checkerboard assay.

E. coli = assay: MIC alone and checkerboard with EDTA or polymyxin B; assay type: cell-based; details: for MIC: Escherichia coli, read-out: MIC, agent alone
Procedure: as §1

A. baumannii = assay: as above; assay type: cell-based; details: for MIC: Acinetobacter baumannii
Procedure: as §1

P. aeruginosa = assay: as above; assay type: cell-based; details: for MIC: Pseudomonas aeruginosa, read-out: MIC, agent alone
Procedure: as §1

K. pneumoniae = assay: as above; assay type: cell-based; details: for MIC of NCL195 in combination with EDTA: with EDTA 10 mM; for MIC: Klebsiella pneumoniae, read-out: MIC, agent alone
Procedure: as §1

## Cl.N=C(NN=Cc1ccc(Cl)cc1)NN=Cc1ccc(Cl)cc1 [NCL812, 2,2'-bis[(4-chlorophenyl)methylene] carbonimidic dihydrazide hydrochloride]
mice
  oral LD50: 150 mg/kg
S. pneumoniae D39; untreated 3.91 ± 0.14 nm
  Periplasmic space width: 4.54 ±0.096 nm
S. pneumoniae D39; untreated 4.35 ± 0.24 nm
  Cell membrane thickness: 6.43 ± 0.29 nm

## Cc1ccc(/C=N/Nc2cc(N/N=C/c3ccc(C)cc3)nc(N)n2)cc1 [NCL195, 4,6-bis(2-((E)-4-methylbenzylidene)hydrazinyl)pyrimidin-2-amine]
Neisseria meningitidis
  Activity against Neisseria meningitidis: bactericidal
E. coli; E. coli ATCC 11229, with EDTA 0.625 mM
  MIC of NCL195 in combination with EDTA: 8 µg/mL
E. coli; E. coli ATCC 11229
  MIC of NCL195 in combination with polymyxin B: 0.25 µg/mL
E. coli; E. coli ATCC 25922, with EDTA 2.5 mM
  MIC of NCL195 in combination with EDTA: 4 µg/mL
E. coli; E. coli ATCC 25922
  MIC of NCL195 in combination with polymyxin B: 0.25 µg/mL
E. coli; ATCC11229, E. coli ATCC 11229
  MIC: > 128 µg/mL
E. coli; ATCC25922, E. coli ATCC 25922
  MIC: > 128 µg/mL
A. baumannii; A. baumannii ATCC 12457, with EDTA 0.25 mM
  MIC of NCL195 in combination with EDTA: 4 µg/mL
A. baumannii; A. baumannii ATCC 12457
  MIC of NCL195 in combination with polymyxin B: 0.5 µg/mL
A. baumannii; A. baumannii ATCC 19606, with EDTA 0.5 mM
  MIC of NCL195 in combination with EDTA: 2 µg/mL
A. baumannii; A. baumannii ATCC 19606
  MIC of NCL195 in combination with polymyxin B: 0.5 µg/mL
A. baumannii; ATCC12457, A. baumannii ATCC 12457, read-out: MIC, agent alone
  MIC: > 128 µg/mL
A. baumannii; ATCC19606, A. baumannii ATCC 19606, read-out: MIC, agent alone
  MIC: > 128 µg/mL
A. baumannii; A. baumannii isolates without strain name (one table line per isolate), read-out: MIC
  MIC: > 128 µg/mL
P. aeruginosa; P. aeruginosa ATCC 27853, with EDTA 5 mM
  MIC of NCL195 in combination with EDTA: 2 µg/mL
P. aeruginosa; P. aeruginosa ATCC 27853
  MIC of NCL195 in combination with polymyxin B: 1 µg/mL
P. aeruginosa; P. aeruginosa PA01, with EDTA […]
  MIC of NCL195 in combination with EDTA: 0.25 µg/mL
P. aeruginosa; P. aeruginosa PA01
  MIC of NCL195 in combination with polymyxin B: 1 µg/mL
  MIC: > 128 µg/mL
P. aeruginosa; ATCC27853, P. aeruginosa ATCC 27853
  MIC: > 128 µg/mL
K. pneumoniae; K. pneumoniae ATCC 4352
  MIC of NCL195 in combination with EDTA: 4 µg/mL
  MIC of NCL195 in combination with polymyxin B: 0.5 µg/mL
K. pneumoniae; K. pneumoniae ATCC 33495
  MIC of NCL195 in combination with EDTA: 4 µg/mL
  MIC of NCL195 in combination with polymyxin B: 0.25 µg/mL
K. pneumoniae; ATCC4352, K. pneumoniae ATCC 4352
  MIC: > 128 µg/mL
K. pneumoniae; ATCC33495, K. pneumoniae ATCC 33495
  MIC: > 128 µg/mL
